Experimental data reported in patent publication US20250387403A1, “SELECTIVE SIGMA-2 RECEPTOR LIGANDS AS MODULATORS OF TMEM97” (BOARD OF REGENTS, THE UNIVERSITY OF TEXAS SYSTEM, priority 2022, published 2025).

What was measured:
σ2R/TMEM97 [1] = target: T1, σ2R/TMEM97 (Homo sapiens, UniProt Q5BJF2)
Protocol: (§1) Ki values are calculated from best-fit IC50 determinations performed in triplicate.
(§2) The binding affinities (Ki) of all synthetic compounds for σ2R/TMEM97 and σ1R were determined at the Psychoactive Drug Screening Program. Prior to the identification of σ2R as TMEM97, Ki values were measured using σ2R sourced from rat PC12 cells and σ1R sourced from guinea pig brain, but subsequently σ2R/TMEM97 and σ1R binding isotherms were determined using human protein obtained by transfection in HEK293T cells.

σ2R/TMEM97 [2] = target: T1, σ2R/TMEM97; assay: Receptor binding assay (PDSP), human σ2R/TMEM97, [3H]-ditolylguanidine competition; settings: for affinity (Ki) for σ2R/TMEM97, in words: human σ2R/TMEM97; for selectivity for σ2R/TMEM97 vs σ1R, in words: human σ2R/TMEM97 vs human σ1R
Protocol: as §1, §2

[3] = tested on: primary cortical neurons transfected with plasmids expressing mHTT (Htt-N586-82Q); assay: mHTT-induced toxicity in transfected primary cortical neurons (HD cell model); assay type: cell-based; settings: for neuroprotection against mHTT-induced neuronal toxicity: concentrations 0.01-10 μM; for intrinsic toxicity: primary cortical neurons
Protocol: Toward testing the hypothesis that selective modulators of σ2R/TMEM97 have neuroprotective attributes in Huntington's disease, a small panel of compounds were evaluated with differing affinities and selectivities for σ2R/TMEM97 in a primary neuron model of HD. […] In the present disclosure, these compounds are tested in an HD cell model to assess the effects of these compounds upon mHTT-induced neuronal toxicity. Briefly, primary neurons were co-transfected with plasmid expression of a 586 N-terminal Htt polypeptide with either normal Q (Htt-N586-22Q) or expanded Q (Htt-N586-82Q) repeats and green fluorescent protein (GFP).
Stock solutions of σ2R/TMEM97 modulators were prepared by dissolving the compound in DMSO to a concentration of 10 mM. For the in vitro assays, the stock solution was diluted with culture medium (1:1000) to a working concentration of 10 μM of σ2R/TMEM97 modulator. Serial dilutions were then performed using culture medium to prepare other concentrations of the modulator. The final DMSO concentration is less than 0.1%. The vehicle group was performed using 0.1% DMSO in culture medium.
To assess the possible neuroprotective effects of selective σ2R/TMEM97 modulators in neurodegenerative processes associated with HD, a cell model was used that has been previously described (Arbez et al, 2017).

σ2R/TMEM97 [4] = target: σ2R/TMEM97 (Rattus norvegicus (Rat), UniProt Q5U3Y7); assay: Receptor binding assay (PDSP), rat σ2R/TMEM97 (PC12 cells), [3H]-ditolylguanidine competition
Sequence of σ2R/TMEM97 (Rattus norvegicus (Rat), UniProt Q5U3Y7) (Q5U3Y7 whole entry): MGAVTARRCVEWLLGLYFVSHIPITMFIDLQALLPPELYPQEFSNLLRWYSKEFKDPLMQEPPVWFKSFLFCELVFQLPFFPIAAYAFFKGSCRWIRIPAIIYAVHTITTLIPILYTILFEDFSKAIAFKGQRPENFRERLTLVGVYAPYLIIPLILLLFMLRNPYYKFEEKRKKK
Protocol: as §1, §2

[5] = tested on: spared nerve injury (SNI) model; settings: earlier studies (Sahn et al, 2017); cited from earlier work

T1 sequence (Q5BJF2 whole entry, looked up): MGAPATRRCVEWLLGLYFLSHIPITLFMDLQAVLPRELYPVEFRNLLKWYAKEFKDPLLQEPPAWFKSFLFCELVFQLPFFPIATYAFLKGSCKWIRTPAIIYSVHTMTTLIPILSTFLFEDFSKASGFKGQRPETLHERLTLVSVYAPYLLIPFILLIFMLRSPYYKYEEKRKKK

Row | SMILES | Ki (σ2R/TMEM97 [1]) [nM] | also measured
1 | CC(C)N1CCCC2CC1c1cc(-c3ccc(C(F)(F)F)cc3)ccc12 (stereo not shown) | 87 | –
2 | CS(=O)(=O)c1cccc(-c2ccc3c(c2)C2C[C@H]3CCN2CCCO)c1 | 1850 | –
3 | O=C(N1CC2(CN(CCO)C2)C1)N1CCC2C[C@H]1c1cc(-c3ccc(C(F)(F)F)cc3)ccc12 | 441 | –
4 | OC1CCC(N2CCCC3CC2c2cc(-c4ccc(C(F)(F)F)cc4)ccc23)CC1 (stereo not shown) | 39 | –
5 | Fc1ccc(-c2ccc3c(c2)C2CC3CCCN2C2CCCC2)cc1 (stereo not shown) | 153 | –
6 | N[C@H]1CC[C@H](N2CCC3CC2c2cc(-c4cccc(C(F)(F)F)c4)ccc23)CC1 (stereo partly shown) | 70.5 | –
7 | OCCCN1CC[C@@H]2CC1c1cc(-c3ccnc(F)c3)ccc12 | 802 | –
8 | Cc1ccc(-c2ccc3c(c2)C2CC3CCCN2C2CCCC2)cc1 (stereo not shown) | 187 | –
9 | CCCN1CCC2CC1c1cc(-c3cccc(C(F)(F)F)c3)ccc12 (stereo not shown) | 112 | –
10 | COc1ccc(-c2ccc3c(c2)C2CC3CCCN2C2CCCC2)cc1 (stereo not shown) | 194 | –
11 | N#Cc1ccc(-c2ccc3c(c2)C2CC3CCCN2C2CCCC2)cc1 (stereo not shown) | 119 | –
12 | CCCN1CCC(C(=O)N2CCC3CC2c2cc(-c4ccc(C(F)(F)F)cc4)ccc23)CC1 (racemic) [JJS-1678, (±)-(1-Propylpiperidin-4-yl)(8-(4-(trifluoromethyl)phenyl)-1,3,4,5-tetrahydro-2H-1,5-methanobenzo[c]azepin-2-yl)methanone] | – | affinity (Ki) for σ2R/TMEM97, in words (σ2R/TMEM97 [2]): high affinity; selectivity for σ2R/TMEM97 vs σ1R, in words (σ2R/TMEM97 [2]): good
13 | CS(=O)(=O)c1cccc(-c2ccc3c(c2)C2C[C@H]3CCN2C(=O)C2CCN(CCO)CC2)c1 | 277 | –
14 | FC(F)(F)c1ccc(-c2ccc3c(c2)C2CC3CCCN2C2CCCC2)cn1 (stereo not shown) | 336 | –
15 | O=C(C1CCNCC1)N1CC[C@H]2CC1c1cc(-c3cccc(OC(F)(F)F)c3)ccc12 | 37.1 | –
16 | O=C(C1CCN(CCO)CC1)N1CCC2CC1c1cc(-c3ccc(C(F)(F)F)cc3)ccc12 (racemic) [EES-1686, (±)-(1-(2-Hydroxyethyl)piperidin-4-yl)(8-(4-(trifluoromethyl)phenyl)-1,3,4,5-tetrahydro-2H-1,5-methanobenzo[c]azepin-2-yl)methanone] | – | neuroprotection against mHTT-induced neuronal toxicity [3]: significant neuroprotection in a dose dependent fashion; concentration providing significant neuroprotection ([3]; lowest of the series): 10 nM; intrinsic toxicity [3]: None of these compounds appear to exhibit any intrinsic toxicity; affinity (Ki) for σ2R/TMEM97, in words (σ2R/TMEM97 [2]): high affinity; selectivity for σ2R/TMEM97 vs σ1R, in words (σ2R/TMEM97 [2]): good
17 | FC(F)(F)c1ccccc1-c1ccc2c(c1)C1CC2CCCN1C1CCCC1 (stereo not shown) | 549 | –

Row | SMILES | Ki (σ2R/TMEM97 [1]) [nM] | also measured
18 | FC(F)(F)c1ccc(-c2ccc3c(c2)C2CC3CCCN2C2CCCCC2)cc1 (racemic) [BEA-1687, (±)-2-Cyclohexyl-9-(4-(trifluoromethyl)phenyl)-1,2,3,4,5,6-hexahydro-1,6-methanobenzo[c]azocine] | – | neuroprotection against mHTT-induced neuronal toxicity [3]: significant neuroprotection in a dose dependent fashion; intrinsic toxicity [3]: None of these compounds appear to exhibit any intrinsic toxicity; affinity (Ki) for σ2R/TMEM97, in words (σ2R/TMEM97 [2]): high affinity; selectivity for σ2R/TMEM97 vs σ1R, in words (σ2R/TMEM97 [2]): good
19 | O=C(N1CCC2(CC1)CN(CCO)C2)N1CCC2C[C@H]1c1cc(-c3ccc(C(F)(F)F)cc3)ccc12 | 91.6 | –
20 | O=C(N1CCN(CCO)CC1)N1CCC2C[C@H]1c1cc(-c3ccc(C(F)(F)F)cc3)ccc12 | 955 | –
21 | O=C(C1CCNCC1)N1CCCC2CC1c1cc(-c3ccc(C(F)(F)F)cc3)ccc12 (stereo not shown) | 52.5 | –
22 | FC(F)(F)c1cccc(-c2ccc3c(c2)C2CC3CCCN2C2CCCC2)c1 (stereo not shown) | 62 | –
23 | CS(=O)(=O)c1ccc(-c2ccc3c(c2)[C@@H]2CC3CCN2C(=O)C2CCN(CCO)CC2)cc1 | 834 | –
24 | FC(F)(F)c1cccc(-c2ccc3c(c2)C2CC3CCN2)c1 (stereo not shown) | 57 | –
25 | FC(F)(F)c1ccc(-c2ccc3c(c2)C2CC3CCN2C2CCC2)cc1 (stereo not shown) | 213 | –
26 | FC(F)(F)Oc1cccc(-c2ccc3c(c2)C2CC3CCN2C2CCCCC2)c1 (stereo not shown) | 79 | –
27 | FC(F)(F)c1ccc(-c2ccc3c(c2)C2CC3CCN2C2CCCC2)cc1 (stereo not shown) | 82.3 | –
28 | CN1CCN(c2ccc3c(c2)C2CC3CCN2C(=O)OCc2ccc(F)cc2)CC1 (racemic) [AMA-1127, (±)-4-Fluorobenzyl-8-(4-methylpiperazin-1-yl)-1,3,4,5-tetrahydro-2H-1,5-methanobenzo[c]azepine-2-carboxylate] | – | neuroprotection against mHTT-induced neuronal toxicity [3]: significant neuroprotection in a dose dependent fashion; intrinsic toxicity [3]: None of these compounds appear to exhibit any intrinsic toxicity; affinity (Ki) for σ2R/TMEM97, in words (σ2R/TMEM97 [4]; rat σ2R/TMEM97): high affinity; selectivity for σ2R/TMEM97 vs σ1R, in words (σ2R/TMEM97 [4]; rat σ2R/TMEM97 vs guinea pig σ1R): good selectivity
29 | OCCCN1CCCC2CC1c1cc(-c3ccc(C(F)(F)F)cc3)ccc12 (stereo not shown) [UKH-1114] | – | neuroprotection against mHTT-induced neuronal toxicity [3]: significant neuroprotection in a dose dependent fashion; intrinsic toxicity [3]: None of these compounds appear to exhibit any intrinsic toxicity; pain relief in the SNI model [5]: relieved pain
30 | O=C(N1CC2CC(C1)N2CCO)N1CCC2C[C@H]1c1cc(-c3ccc(C(F)(F)F)cc3)ccc12 | 62.9 | –
31 | FC(F)(F)c1ccc(-c2ccc3c(c2)C2CC3CCCN2CC2CCCC2)cc1 (stereo not shown) | 99 | –
32 | OCCCN1CC[C@@H]2CC1c1cc(-c3cccc(OC(F)(F)F)c3)ccc12 | 48.3 | –
33 | CS(=O)(=O)c1ccc(-c2ccc3c(c2)C2C[C@H]3CCN2CCCO)cc1 | 1180 | –
34 | O=C(C1CCN(CCCO)CC1)N1CC[C@@H]2CC1c1cc(-c3cccc(OC(F)(F)F)c3)ccc12 | 264 | –

Further lines, with some results ahead:

Row | Ki (σ2R/TMEM97 [1]) [nM] | SMILES | also measured
35 | 17.6 | COCCN1CC(C(=O)N2CCC3C[C@H]2c2cc(-c4ccc(C(F)(F)F)cc4)ccc23)C1 | –
36 | 4.3 | CN(CCO)CCC(=O)N1CCC2CC1c1cc(-c3cccc(C(F)(F)F)c3)ccc12 (stereo not shown) | –
37 | 16 | O=C(C1CNC1)N1CCC2CC1c1cc(-c3cccc(C(F)(F)F)c3)ccc12 (stereo not shown) | –
38 | 35.4 | O=C(C1CCNCC1)N1CC[C@@H]2CC1c1cc(-c3cccc(OC(F)(F)F)c3)ccc12 | –
39 | 32.3 | O=C(C1CCN(CCO)CC1)N1CCC2CC1c1cc(-c3cccc(C(F)(F)F)c3)ccc12 (stereo not shown) | –
40 | 4.9 | CNCCC(=O)N1CCC2CC1c1cc(-c3cccc(C(F)(F)F)c3)ccc12 (stereo not shown) | –
41 | 35.1 | CN1CCC(C(=O)N2CCC3C[C@@H]2c2cc(-c4ccc(C(F)(F)F)cc4)ccc23)CC1 | –
42 | 4.1 | CC(=O)N[C@H]1CC[C@H](N2CCC3CC2c2cc(-c4cccc(C(F)(F)F)c4)ccc23)CC1 (stereo partly shown) | –
43 | 10.3 | COCCN1CCC(C(=O)N2CCC3C[C@H]2c2cc(-c4ccc(C(F)(F)F)cc4)ccc23)CC1 | –
44 | 1.3 | CCCN1CCC(C(=O)N2CCC3CC2c2cc(-c4ccc(C(F)(F)F)cc4)ccc23)CC1 (stereo not shown) | –
45 | 11 | OCCCN1CCC2CC1c1cc(-c3ccc(C(F)(F)F)cc3)ccc12 (stereo not shown) | –
46 | 7.7 | O=C(C1CCN(CCCO)CC1)N1CCC2C[C@H]1c1cc(-c3ccc(C(F)(F)F)cc3)ccc12 | –
47 | 2.3 | CN1CCC(C(=O)N2CCC3CC2c2cc(-c4cccc(C(F)(F)F)c4)ccc23)CC1 (stereo not shown) | –
48 | 9.5 | CN(C)[C@H]1CC[C@@H](N2CCC3C[C@H]2c2cc(-c4cccc(C(F)(F)F)c4)ccc23)CC1 | –
49 | 7.9 | N[C@H]1CC[C@@H](N2CCC3CC2c2cc(-c4cccc(C(F)(F)F)c4)ccc23)CC1 (stereo partly shown) | –
50 | 6.8 | O=C(C1CCNCC1)N1CCC2CC1c1cc(-c3ccc(C(F)(F)F)cc3)ccc12 (stereo not shown) | –
51 | 25 | FC(F)(F)c1ccc(-c2ccc3c(c2)C2CC3CCCN2C2CCCCC2)cc1 (stereo not shown) | –
52 | 13.6 | O=C(C1CCN(CCO)CC1)N1CCC2C[C@H]1c1cc(-c3ccc(C(F)(F)F)cc3)ccc12 | –
53 | 8.7 | CN(C)CCC(=O)N1CCC2CC1c1cc(-c3cccc(C(F)(F)F)c3)ccc12 (stereo not shown) | –
54 | 30.8 | N[C@H]1CC[C@@H](N2CCC3C[C@H]2c2cc(-c4cccc(C(F)(F)F)c4)ccc23)CC1 | –
55 | 30.4 | CN1CCC(C(=O)N2CCC3CC2c2cc(-c4cccc(OC(F)(F)F)c4)ccc23)CC1 (stereo not shown) | –
56 | 21 | FC(F)(F)c1ccc(-c2ccc3c(c2)C2CC3CCCN2)cc1 (stereo not shown) | –
57 | 34 | OC(CF)CN1CCC2CC1c1cc(-c3ccc(C(F)(F)F)cc3)ccc12 (stereo not shown) | –
58 | 5.5 | O=C(C1CCNCC1)N1CCC2CC1c1cc(-c3cccc(C(F)(F)F)c3)ccc12 (stereo not shown) | –
59 | 32 | OCCN1CCC2CC1c1cc(-c3ccc(C(F)(F)F)cc3)ccc12 (stereo not shown) | –
60 | 15.3 | O=C(C1CN(CCO)C1)N1CCC2C[C@H]1c1cc(-c3ccc(C(F)(F)F)cc3)ccc12 | –
